Measurements as given in PMC8224038, “Anti-Leukemic Properties of Aplysinopsin Derivative EE-84 Alone and Combined to BH3 Mimetic A-1210477” (Marine Drugs, 2021).
Like-named read-outs stand apart in the source and are kept apart here.

Experiments:
K562 cells [1] = assay: Cell cycle analysis (PI, FACS); format: cell-based, human; settings: Celecoxib 40 μM
Protocol: Cells were collected and fixed in 70% ethanol. DNA was stained with propidium iodide (PI) solution (1 μg/mL, Sigma-Aldrich, St. Louis, MO, USA) in 1XPBS (Biosesang, Seongnam, Korea) for 30 min at 37 °C, supplemented with RNase A (100 μg/mL, Roche, Basel, Switzerland). Samples were analyzed by flow cytometry using the FACSCalibur^TM system, Becton Dickinson (BD) Biosciences (San Jose, CA, USA). Data were recorded statistically (10,000 events/sample) using the Cell Quest software (BD Biosciences) and analyzed using Flow-Jo 8.8.5 software (Tree Star, Inc., Ashland, OR, USA).

K562 cells [2] = assay: Trypan blue exclusion test, viability; format: cell-based, human; settings: for viability of K562 cells: concentrations up to 50 µM, 24, 48, 72 h
Protocol: (§1) Cell proliferation and viability were assessed by the trypan blue exclusion method (Lonza), and viable cells were counted using a hematocytometer (Marienfeld, Lauda-Königshofen, Germany). Differential toxicity was calculated by comparing the viability of RPMI 1788 cells to the viability of cancer cells (normal/cancer cells). The difference in viability was expressed in terms of fold change.

K562IR cells = assay: Trypan blue exclusion test, viability; format: cell-based; settings: Homo sapiens, A-1210477 20 µM, 24 h
Protocol: as §1

K562 cells [3] = assay: Annexin V APC/PI staining quantified by FACS; format: cell-based, human
From the text: (§2) The percentage of apoptotic cells was quantified as the fraction of cells showing fragmented nuclei, as assessed by fluorescence microscopy (Nikon, Tokyo, Japan) after staining with Hoechst 33342 (Sigma-Aldrich) and propidium iodide (Sigma-Aldrich). In addition, apoptosis was confirmed by Annexin V APC (Biolegend, 640919)/propidium iodide (BD Biosciences, 556547) staining and fluorescence-activated cell sorter (FACS) analysis according to the manufacturer protocol (BD Biosciences, 556547).

K562 cells [4] = assay: Hoechst/PI staining by fluorescent microscopy; format: cell-based, human; settings: K562, 24 h, A-1210477 10 µM alone (Figure 7D)
From the text: as §2

K562 cells [5] = assay: Trypan blue exclusion test, proliferation (GI50); format: cell-based, human; settings: concentrations up to 50 µM; 24, 48, 72 h
Protocol: as §1

RPMI 1788 [6] = assay: Trypan blue exclusion test, proliferation (GI50) in noncancerous cells; format: cell-based, human
Protocol: as §1

RPMI 1788 [7] = assay: Trypan blue exclusion test, viability (IC50) in noncancerous cells; format: cell-based, human; settings: for IC50: read-out: IC50 (50% cell death)
Protocol: as §1

zebrafish embryos = assay: Zebrafish toxicity; settings: 24 h exposure
Protocol: For toxicity assays, embryos were treated with 0.003% phenylthiourea (PTU) 14 h before the assay to remove pigmentation. Then, 2 h before the assay, the embryo’s shell was eliminated and then treated for up to 24 h with aplysinopsin compounds at indicated concentrations in 24-well plates. Viability and abnormal development were assessed after 24 h of treatment under light microscopy (Carl Zeiss Stereomicroscope DV4, Seoul, Korea). Pictures were taken by fixing embryos onto a glass slide with 3% methylcellulose (Sigma-Aldrich).

[8] = K562, 24 h, A-1210477 10 μM, with z-VAD-fmk (50 μM)
[9] = K562, 24 h, Ima 1 μM, with z-VAD-fmk (50 μM)

Molecule: Cc1ccc(-c2cc(C(F)(F)F)nn2-c2ccc(S(N)(=O)=O)cc2)cc1 [Celecoxib, reference compound]
- G1 cell cycle phase (K562 cells [1]; K562, 48 h): 64.77 ± 3.09%
- G2/M cell cycle phase (K562 cells [1]; K562, 48 h): 17.44 ± 2.13%
- S cell cycle phase (K562 cells [1]; K562, 48 h): 15.00 ± 0.93%
- Sub-G1 cell cycle phase (K562 cells [1]; K562, 48 h): 2.79 ±1.90%
- G1 cell cycle phase (K562 cells [1]; K562, 72 h): 68.43 ± 4.67%
- G2/M cell cycle phase (K562 cells [1]; K562, 72 h): 16.96 ± 3.04%
- S cell cycle phase (K562 cells [1]; K562, 72 h): 11.20 ± 2.37%
- Sub-G1 cell cycle phase (K562 cells [1]; K562, 72 h): 3.41 ± 2.04%

Molecule: Cc1nn(C)c(COc2ccc(N3CCN(S(=O)(=O)N(C)C)CC3)cc2)c1-c1cccc2c(CCCOc3cccc4ccccc34)c(C(=O)O)n(CCN3CCOCC3)c12 [Compound A-1210477, reference compound]
- viability at 10 µM (K562 cells [2]; Homo sapiens, K562, A-1210477 10 µM, 24 h): 79.3 ± 1.5%
- viability at 20 µM (K562IR cells): 73 ± 3.6%
- AnnV+/PI+ (%) (K562 cells [3]; K562, 24 h, A-1210477 10 μM): 4.73 ± 0.17%
- AnnV+/PI− (%) (K562 cells [3]; K562, 24 h, A-1210477 10 μM): 9.31 ± 1.78%
- Combined cell death (%) (K562 cells [3]; K562, 24 h, A-1210477 10 μM): 14.04 ± 3.24%
- AnnV+/PI+ (%) (K562 cells [3]; [8]): 2.81 ± 0.21%
- AnnV+/PI− (%) (K562 cells [3]; [8]): 6.04 ± 0.99%
- Combined cell death (%) (K562 cells [3]; [8]): 8.85 ± 2.28%
- apoptotic cell death (K562 cells [4]): about 14.5%

Molecule: N#CCC(=O)NNC(=O)C(=O)c1cn(Cc2ccccc2)c2ccccc12 [EE-31, 2-(1-Benzyl-1H-Indol-3-yl)-N′-(2-Cyanoacetyl)-2-Oxoacetohydrazide]
- overall growth of K562 cells (K562 cells [5]): only weakly affected
- viability of K562 cells (K562 cells [2]): only weakly affected
- melting point: 264 to 266 °C

Molecule: COc1ccc2c(c1)c(C(=O)C(=O)NNC(=O)CC#N)cn2Cc1ccccc1 [EE-80, 2-(1-Benzyl-5-Methoxy-1H-Indol-3-yl)-N′-(2-Cyanoacetyl)-2-Oxoacetohydrazide]
- overall growth of K562 cells (K562 cells [5]): only weakly affected
- viability of K562 cells (K562 cells [2]): only weakly affected
- melting point: 199 to 201 °C

Molecule: COc1ccc2c(c1)c(C(=O)C(=O)NNC(=O)CC#N)cn2Cc1ccc(Cl)cc1Cl [EE-92, N′-(2-Cyanoacetyl)-2-(1-(2,4-Dichlorobenzyl)-5-Methoxy-1H-Indol-3-yl)-2-Oxoacetohydrazide]
- overall growth of K562 cells (K562 cells [5]): only weakly affected
- viability of K562 cells (K562 cells [2]): only weakly affected
- melting point: 242 to 244 °C

Molecule: Cc1ccc(NC(=O)c2ccc(CN3CCN(C)CC3)cc2)cc1Nc1nccc(-c2cccnc2)n1 [Ima, Imatinib, reference compound]
- AnnV+/PI+ (%) (K562 cells [3]; K562, 24 h, Ima 1 μM): 6.97 ± 0.88%
- AnnV+/PI− (%) (K562 cells [3]; K562, 24 h, Ima 1 μM): 37.77 ± 4.07%
- Combined cell death (%) (K562 cells [3]; K562, 24 h, Ima 1 μM): 44.74 ± 21.78%
- AnnV+/PI+ (%) (K562 cells [3]; [9]): 2.93 ± 0.15%
- AnnV+/PI− (%) (K562 cells [3]; [9]): 10.86 ± 3.57%
- Combined cell death (%) (K562 cells [3]; [9]): 13.79 ± 5.60%
- AnnV+/PI+ (%) (K562 cells [3]; K562, Ima 1 μM (Figure 3B)): 31.27 ± 5.24%
- AnnV+/PI− (%) (K562 cells [3]; K562, Ima 1 μM (Figure 3B)): 51.77 ± 2.29%
- Combined cell death (%) (K562 cells [3]; K562, Ima 1 μM (Figure 3B)): 83.03 ± 14.50%

Molecule: (Z)-5-((1H-Indol-3-yl)Methylene)-1,3-Dimethylimidazolidine-2,4-Dione [EE-115]
- overall growth of K562 cells (K562 cells [5]): only weakly affected
- GI50 (RPMI 1788 [6]; RPMI 1788, 24 h): > 50 µM
- GI50 (RPMI 1788 [6]; RPMI 1788, 48 h): 30.4 ± 1.95 µM
- GI50 (RPMI 1788 [6]; RPMI 1788, 72 h): 27.7 ± 2.3 µM
- IC50 (RPMI 1788 [7]; RPMI 1788, 24 h): > 50 µM
- IC50 (RPMI 1788 [7]; RPMI 1788, 48 h): > 50 µM
- IC50 (RPMI 1788 [7]; RPMI 1788, 72 h): > 50 µM
- viability of RPMI 1788 cells (RPMI 1788 [7]; up to 50 µM, Figure S4B): reduced the viability
- viability of K562 cells (K562 cells [2]): only weakly affected
- growth (relative body length) of zebrafish (zebrafish embryos; concentrations up to 100 µM): did not affect
- survival rate of zebrafish (zebrafish embryos; concentrations up to 100 µM): did not affect
- morphological changes of zebrafish (zebrafish embryos; embryos 24 hpf, different concentrations): No significant morphological changes
